Experiment [1] deals with Protein kinase C, PKC; classical/novel (Homo sapiens) (UniProt O94806+P17252+P05129+Q05655+P05771+Q02156+P24723+Q15139+Q04759). Put plainly: Displacement of phorbol [3H]PDBu from protein kinase C; A - Did displace phorbol (PDBu) at 50 uM or less. The experiment is classed as protein assay.
Experiment [2] is described as follows: Inhibition of c-AMP kinase PKA. Further details: species or system Bos taurus.
The target of another experiment is Protein kinase C (PKC). Put plainly: Inhibitory activity against protein kinase C (PKC). The class given is protein assay, Homo sapiens.

Where only a bound is given, the exact number is not on record here.

`O=C(O[C@@H]1O[C@H]2COC(=O)c3cc(O)c(O)c(O)c3-c3c(cc(O)c(O)c3O)C(=O)O[C@H]2[C@@H]2OC(=O)c3cc(O)c(O)c(O)c3-c3c(cc(O)c(O)c3O)C(=O)O[C@H]12)c1cc(O)c(O)c(Oc2c(O)c(O)c(O)c3c2C(=O)O[C@H]2[C@@H]4OC(=O)c5cc(O)c(O)c(O)c5-c5c(cc(O)c(O)c5O)C(=O)O[C@@H]4[C@H](OC(=O)c4cc(O)c(O)c(Oc5c(O)c(O)c(O)c6c5C(=O)O[C@H]5[C@@H]7OC(=O)c8cc(O)c(O)c(O)c8-c8c(cc(O)c(O)c8O)C(=O)O[C@@H]7[C@H](OC(=O)c7cc(O)c(O)c(Oc8c(O)c(O)c(O)c9c8C(=O)O[C@H]8[C@@H]%10OC(=O)c%11cc(O)c(O)c(O)c%11-c%11c(cc(O)c(O)c%11O)C(=O)O[C@@H]%10[C@H](OC(=O)c%10cc(O)c(O)c(O)c%10)O[C@H]8COC(=O)c8cc(O)c(O)c(O)c8-9)c7)O[C@H]5COC(=O)c5cc(O)c(O)c(O)c5-6)c4)O[C@H]2COC(=O)c2cc(O)c(O)c(O)c2-3)c1` returned a Phorbol displacement in experiment [1] below 50 µM. Moreover, the IC50 in experiment [2] amounted to 22 µM; against Protein kinase C (PKC) it was 10 µM.
The matching figures for `O=C(OC1COC(=O)c2cc(O)c(O)c(O)c2-c2c(cc(O)c(O)c2O)C(=O)OC1C1OC(=O)c2cc(O)c(O)c(O)c2-c2c(O)c(O)c(O)c3c2C(=O)OC1[C@@H]3O)c1cc(O)c(O)c(O)c1` (some centres not stated): below 50 µM, 84 µM and 11 µM.
The matching figures for `O=C1OCC2OC(=O)c3cc(O)c(O)c(O)c3-c3c(O)c(O)c(O)c4c3C(=O)OC(C2OC(=O)c2cc(O)c(O)c(O)c2-c2c1cc(O)c(O)c2O)C1OC(=O)c2c-4c(O)c(O)c(O)c2[C@@H]1c1c(O)cc(O)c2c1O[C@H](c1ccc(O)c(O)c1)[C@@H](O)C2` (some centres not stated): below 50 µM, 95 µM and 7 µM.
The compound `O=C(OC[C@@H]1O[C@@H](OC(=O)c2cc(O)c(O)c(O)c2)[C@@H](OC(=O)c2cc(O)c(O)c(O)c2)[C@@H](OC(=O)c2cc(O)c(O)c(O)c2)[C@@H]1OC(=O)c1cc(O)c(O)c(O)c1Oc1cc2c(c(O)c1O)-c1c(cc(O)c(O)c1O)C(=O)OC[C@@H]1O[C@@H](OC(=O)c3cc(O)c(O)c(O)c3)[C@@H](OC(=O)c3cc(O)c(O)c(O)c3)[C@@H](OC(=O)c3cc(O)c(O)c(O)c3)[C@@H]1OC2=O)c1cc(O)c(O)c(O)c1` yielded a Phorbol displacement in experiment [1] below 50 µM. Also, the values for the IC50 (in experiment [2]; against Protein kinase C (PKC)) were 32 µM and 3 µM, respectively.

As usually defined, the IC50 is the concentration at which inhibition is half-maximal. Lower therefore signals greater potency in that assay.

Values taken from ChEMBL document CHEMBL1149998, “Tannins as selective inhibitors of protein kinase C” (Bioorg Med Chem Lett, 1992).
